Legend:
HaCaT keratinocytes = assay: Influence of compounds on keratinocyte proliferation (Cell Titer Viability Assay); assay type: cell-based; conditions: Homo sapiens, 25 μM test compound, 48 hrs, compared to control experiments
Description: 5×10^3 HaCaT keratinocytes were seeded into 60 wells of 96 well plates in 200 μl KBM/10% FCS and incubated for 24 hrs at 37° C. The test compounds were dissolved at 100 mM in DMSO. The test items were then diluted to a concentration of 25 μM in KBM/FCS with a final concentration of 1% DMSO. The test compounds, as well as the negative control for unstimulated cells (KBM/1% DMSO) and stimulated cells (KBM/FCS/1% DMSO), were added to the HaCaTs in triplicates and incubated for 48 hrs. At the end of the incubation period, the media was removed and cell numbers were determined with Cell Titer Viability Assay from Promega (#G7571/G7572) according to the manufacturer's instructions.

[1] = system: Peripheral blood mononuclear cells (PBMCs); assay: Influence of compounds on T cell proliferation ([3H]-Thymidin, anti-CD3-stimulated PBMCs); assay type: cell-based; conditions: PBMC, three different human donors
From the text: Peripheral blood mononuclear cells (PBMCs) were isolated from peripheral blood by Ficoll gradient centrifugation. […] Subsequently, the cells were washed three times with PBS and were resuspended in 96-well plates in a concentration of 2×10^5 cells/well. […] As positive and negative controls, PBMCs, stimulated with soluble anti-CD3-antibody, and non-stimulated PBMCs plus 0,1% DMSO were used. The addition of 0,1% DMSO had no effect on the proliferation rate. […] The cells were harvested using a Mikro 96 Harvester (Skatron Instruments, Lier, Norwegen). The cpm-values indicative for proliferation were determined using a Packard Matrix 9600 Counter (Canberra Packard, Schwadorf, Österreich). The experiments were made with three different human donors.
In order to determine the EC50 of test compounds, the value of anti-CD3-stimulated cells plus 0,1% DMSO was set as 100%. All other values were divided by the 100% value in order to obtain a relative percentage of inhibition. The obtained percentage values were used to determine the EC50 values using Sigma Plot.

| Compound | inhibition at 25 µM (HaCaT keratinocytes) [%] | EC50 [1] [µM] |
| --- | --- | --- |
| O=C(c1ccc(C(F)(F)F)cc1)N1c2ccccc2-c2ccccc2C1c1c[nH]c2ccccc12 (centres unmarked) [Example 7, [6-(1H-Indol-3-yl)-6H-phenanthridin-5-yl]-(4-trifluoromethyl-phenyl)-methanone] | > 50 |  |
| COC(=O)N1c2ccccc2-c2ccccc2C1c1c[nH]c2ccccc12 (centres unmarked) [Example 36, 6-(1H-Indol-3-yl)-6H-phenanthridine-5-carboxylic acid methyl ester] | > 50 |  |
| Cc1ccc(S(=O)(=O)N2c3ccccc3-c3ccccc3C2c2ccc3c(c2)OCO3)cc1 (centres unmarked) [Example 76, 6-Benzo[1,3]dioxol-5-yl-5-(toluene-4-sulfonyl)-5,6-dihydro-phenanthridine] |  | < 25 |
| O=C(CCc1ccccc1)N1c2ccccc2-c2ccccc2C1c1c[nH]c2ccccc12 (centres unmarked) [Example 35, 1-[6-(1H-Indol-3-yl)-6H-phenanthridin-5-yl]-3-phenyl-propan-1-one] | > 50 |  |
| Cc1ccc(C(=O)n2c(=O)c3ccccc3c3ccccc32)cc1 [Example 77, 5-(4-Methyl-benzoyl)-5H-phenanthridin-6-one] |  | < 25 |
| CC(=O)N1c2ccccc2-c2ccccc2C1c1c[nH]c2ccccc12 (centres unmarked) [Example 3, 1-[6-(1H-Indol-3-yl)-6H-phenanthridin-5-yl]-ethanone] | > 50 | < 25 |
| O=C1CN(S(=O)(=O)c2ccccc2)c2ccccc2-c2ccccc21 [Example 79, 5-Benzenesulfonyl-5,6-dihydro-dibenzo[b,d]azepin-7-one] |  | < 25 |
| CC(=O)Nc1ccc(S(=O)(=O)N2CC(=O)c3ccccc3-c3ccccc32)cc1 [Example 81, N-[4-(7-Oxo-6,7-dihydro-dibenzo[b,d]azepine-5-sulfonyl)-phenyl]-acetamide] |  | < 25 |
| CN(C)c1ccc(C(=O)N2c3ccccc3-c3ccccc3C2c2c[nH]c3ccccc23)cc1 (centres unmarked) [Example 6, (4-Dimethylamino-phenyl)-[6-(1H-indol-3-yl)-6H-phenanthridin-5-yl]-methanone] | > 50 |  |
| O=C(c1ccco1)N1c2ccccc2-c2ccccc2C1c1c[nH]c2ccccc12 (centres unmarked) [Example 23, Furan-2-yl-[6-(1H-indol-3-yl)-6H-phenanthridin-5-yl]-methanone] | > 50 | < 25 |
| O=C1CN(S(=O)(=O)c2cccs2)c2ccccc2-c2ccccc21 [Example 86, 5-(Thiophene-2-sulfonyl)-5,6-dihydro-dibenzo[b,d]azepin-7-one] |  | < 25 |
| O=C1CN(S(=O)(=O)c2ccc(Br)cc2)c2ccccc2-c2ccccc21 [Example 82, 5-(4-Bromo-benzenesulfonyl)-5,6-dihydro-dibenzo[b,d]azepin-7-one] |  | < 25 |
| O=C(c1cccc(F)c1)N1c2ccccc2-c2ccccc2C1c1c[nH]c2ccccc12 (centres unmarked) [Example 12, (3-Fluoro-phenyl)-[6-(1H-indol-3-yl)-6H-phenanthridin-5-yl]-methanone] | > 50 | < 25 |
| CCCC(C)C(=O)N1c2ccccc2-c2ccccc2C1c1c[nH]c2ccccc12 (centres unmarked) [Example 28, 1-[6-(1H-Indol-3-yl)-6H-phenanthridin-5-yl]-2-methyl-pentan-1-one] | > 50 | < 25 |
| O=C(c1ccccc1)N1c2ccccc2-c2ccccc2C1c1c[nH]c2ccccc12 (centres unmarked) [Example 4, [6-(1H-Indol-3-yl)-6H-phenanthridin-5-yl]-phenylmethanone] | > 50 |  |
| CC(C)C(=O)N1c2ccccc2-c2ccccc2C1c1c[nH]c2ccccc12 (centres unmarked) [Example 26, 1-[6-(1H-Indol-3-yl)-6H-phenanthridin-5-yl]-2-methyl-propan-1-one] | > 50 | < 25 |
| O=C(CCC1CCCCC1)N1c2ccccc2-c2ccccc2C1c1c[nH]c2ccccc12 (centres unmarked) [Example 34, 3-Cyclohexyl-1-[6-(1H-indol-3-yl)-6H-phenanthridin-5-yl]-propan-1-one] | > 50 |  |
| Cc1ccc(S(=O)(=O)N2CC(=O)c3ccccc3-c3ccccc32)cc1 [Example 78, 5-(Toluene-4-sulfonyl)-5,6-dihydro-dibenzo[b,d]azepin-7-one] | > 50 | < 25 |
| O=C(c1cccc(C(F)(F)F)c1)N1c2ccccc2-c2ccccc2C1c1c[nH]c2ccccc12 (centres unmarked) [Example 14, [6-(1H-Indol-3-yl)-6H-phenanthridin-5-yl]-(3-trifluoromethyl-phenyl)-methanone] | > 50 |  |
| O=C(C1CCC1)N1c2ccccc2-c2ccccc2C1c1c[nH]c2ccccc12 (centres unmarked) [Example 30, Cyclobutyl-[6-(1H-indol-3-yl)-6H-phenanthridin-5-yl]-methanone] | > 50 |  |
| O=C(c1ccc(Cl)nc1)N1c2ccccc2-c2ccccc2C1c1c[nH]c2ccccc12 (centres unmarked) [Example 20, (6-Chloro-pyridin-3-yl)-[6-(1H-indol-3-yl)-6H-phenanthridin-5-yl]-methanone] | > 50 |  |
| O=C1CN(S(=O)(=O)c2ccc([N+](=O)[O-])cc2)c2ccccc2-c2ccccc21 [Example 83, 5-(4-Nitro-benzenesulfonyl)-5,6-dihydro-dibenzo[b,d]azepin-7-one] |  | < 25 |
| O=C(c1cccnc1Cl)N1c2ccccc2-c2ccccc2C1c1c[nH]c2ccccc12 (centres unmarked) [Example 21, (2-Chloro-pyridin-3-yl)-[6-(1H-indol-3-yl)-6H-phenanthridin-5-yl]-methanone] | > 50 | < 25 |
| O=C1CN(S(=O)(=O)c2cc(C(F)(F)F)cc(C(F)(F)F)c2)c2ccccc2-c2ccccc21 [Example 84, 5-(3,5-Bis-trifluoromethyl-benzenesulfonyl)-5,6-dihydro-dibenzo[b,d]azepin-7-one] |  | < 25 |
| O=C(c1cc(C(F)(F)F)cc(C(F)(F)F)c1)N1c2ccccc2-c2ccccc2C1c1c[nH]c2ccccc12 (centres unmarked) [Example 17, (3,5-Bis-trifluoromethyl-phenyl)-[6-(1H-indol-3-yl)-6H-phenanthridin-5-yl]-methanone] | > 50 |  |
